Reference: publication PMC11337105, “Identification of 2-(N-aryl-1,2,3-triazol-4-yl) quinoline derivatives as antitubercular agents endowed with InhA inhibitory activity” (Frontiers in Chemistry, 2024)
Values after ≈ are worked out from the molar mass of the structure shown.

Experiments:
M. bovis BCG = test: microbe, parasite or virus in culture; type: cell-based; details: Mycobacterium tuberculosis variant bovis BCG, read-out: MIC M. bovis BCG
M. tuberculosis H37Rv = test: Antimycobacterial MIC / primary screening, MABA (microplate alamar blue assay); type: cell-based; details: Mycobacterium tuberculosis
M. abscessus = test: Antimycobacterial MIC / primary screening, MABA; type: cell-based; details: Mycobacteroides abscessus, read-out: MIC M. abscessus
MTB InhA = MTB InhA (Mycobacterium tuberculosis, UniProt P9WGR1); test: InhA inhibition endpoint assay; type: biochemical; details: read-out: IC50 against InhA
Chain of MTB InhA (P9WGR1 whole entry, looked up): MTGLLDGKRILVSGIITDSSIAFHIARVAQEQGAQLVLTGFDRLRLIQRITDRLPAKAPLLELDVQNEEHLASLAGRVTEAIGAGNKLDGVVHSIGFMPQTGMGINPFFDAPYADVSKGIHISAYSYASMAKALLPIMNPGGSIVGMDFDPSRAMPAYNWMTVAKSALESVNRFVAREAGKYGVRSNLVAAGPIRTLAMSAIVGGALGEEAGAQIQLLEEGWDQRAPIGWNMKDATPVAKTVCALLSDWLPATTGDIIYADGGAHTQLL

L929 cells = test: Cytotoxicity, MTT protocol (ISO 10993-5:2009(E)); type: cell-based; details: ratio to MIC against M. tuberculosis
Experimental: This evaluation adhered precisely to international standards (ISO 10993-5:2009(E)), employing L929 cells and the MTT protocol ([Bekier et al., 2021]). The determination of the half maximal inhibitory concentration (IC50) values was carried out for 12 out of the 13 compounds tested, considering the occurrence of derivative precipitation in the growth medium for L929 cells (Table 1). […] For two compounds (5g and 5i), the discriminatory index (IC50/MIC) was identified at the level of 20.

MTB = details: cited from earlier work

SMILES | MIC (M. bovis BCG) | MIC (M. tuberculosis H37Rv) | MIC (M. abscessus) | IC50 (MTB InhA) | melting point | IC50-L929/MIC Mtb (cytotoxicity / discriminatory index) (L929 cells) | MIC against MTB (MTB; ref Quimque et al., 2023) | MIC, MTB H37Rv strain (MTB; MTB H37Rv, ref Boechat et al., 2011) | MIC, tuberculosis (MTB; ref Gill et al., 2008)
NNC(=O)c1ccncc1 [INH, isoniazid, reference compound] | 0.05 µg/mL (≈ 0.365 µM) | 0.1 µg/mL (≈ 0.729 µM) | 0.1 µg/mL (≈ 0.729 µM) | 240 ± 10 nM | – | – | – | – | –
Cc1c(-c2cc(C(=O)O)c3cc(Cl)ccc3n2)nnn1-c1ccccc1 [Compound 5i, 6-Chloro-2-(5-methyl-1-phenyl-1H-1,2,3-triazol-4-yl)benzo [b]pyridine-4-carboxylic acid] | < 125 µg/mL | 15 µg/mL (≈ 41.1 µM) | > 125 µg/mL | 11800 ± 490 nM | > 300 °C | 20 | – | – | –
CC(C)c1ccc2nc(-c3ccc4ccc5ccccc5c4c3)cc(C(=O)O)c2c1 [Compound II] | – | – | – | – | – | – | around 16 μM | – | –
O=C(N/N=C/c1cn(-c2ccc(Cl)cc2)nn1)c1ccncc1 [compound VI] | – | – | – | – | – | – | – | 0.62 µg/mL (≈ 1.9 µM) | –
Fc1cccc(-c2nc3ccccc3n2Cc2cn(-c3ccc(F)cc3F)nn2)c1 [compound VII] | – | – | – | – | – | – | – | – | 6.25 µg/mL (≈ 15.4 µM)
Cc1c(-c2cc(C(=O)O)c3cc(Cl)ccc3n2)nnn1-c1ccc(Cl)cc1 [Compound 5n, 6-Chloro-2-(1-(4-chlorophenyl)-5-methyl-1H-1,2,3-triazol-4-yl)benzo [b]pyridine-4-carboxylic acid] | < 125 µg/mL | 12.5 µg/mL (≈ 31.3 µM) | > 125 µg/mL | 720 ± 30 nM | – | 16 | – | – | –
Cc1c(-c2cc(C(=O)O)c3cc(Cl)ccc3n2)nnn1-c1cccc(Cl)c1 [Compound 5k, 6-Chloro-2-(1-(3-chlorophenyl)-5-methyl-1H-1,2,3-triazol-4-yl)benzo [b]pyridine-4-carboxylic acid] | < 125 µg/mL | 15 µg/mL (≈ 37.6 µM) | > 125 µg/mL | – | > 300 °C | 13 | – | – | –
Cc1c(-c2cc(C(=O)O)c3ccccc3n2)nnn1-c1ccc(Br)cc1 [Compound 5g, 2-(1-(4-Bromophenyl)-5-methyl-1H-1,2,3-triazol-4-yl)benzo [b]pyridine-4-carboxylic acid] | < 125 µg/mL | 15 µg/mL (≈ 36.7 µM) | > 125 µg/mL | 4130 ± 170 nM | 228 to 229 °C | 20 | – | – | –
